Data: patent publication US6034230A, “Nucleic acids encoding myocardial peptides” (priority 1999, dated 2000)

Test system: Balb/c mice
Assay: Oligodeoxynucleotides as immunostimulators: immunization with M7A-alpha peptide plus oligodeoxynucleotide, inflammatory heart disease at day 21
Format: in vivo
Details: for Severity of inflammatory heart disease (score) / Prevalence of inflammatory heart disease: Table 2, day 21; for Severity of inflammatory heart disease (score): about 10 nmol oligodeoxynucleotide + about 50 micrograms M7A-alpha, score scale of Example 1; for Immunostimulatory / adjuvant activity: with M7A-alpha peptide, in the absence of Freund's complete adjuvant
[1] = about 10 nmol oligodeoxynucleotide as adjuvant + about 50 micrograms M7A-alpha, Freund's incomplete adjuvant, days 0 and 7

Sequence	Severity of inflammatory heart disease (score) (Freund's incomplete adjuvant)	Prevalence of inflammatory heart disease [1]	Prevalence of inflammatory heart disease (negative control: about 10 nmol oligodeoxynucleotide without peptide)	Immunostimulatory / adjuvant activity
GTACTGACGTTTACTCTTGG (chemistry not given here) [CpG, oligonucleotide from DNA encoding 60 kDa cysteine rich outer membrane protein of Chlamydia trachomatis, containing a CpG motif]	1.2 ± 0.4	5/5	0/5	potent immunostimulator
GTACTGAGCTTTACTCTTGG (chemistry not given here) [non-CpG, counterpart of the CpG oligo not containing the CpG motif, reference compound]	1.0 ± 0.0	1/5		hardly effective as an adjuvant
